{"source": "patent US20020052363A1", "about": "“Inhibitors of prenyl-protein transferase” (priority 2000, published 2002)", "system": "prenyl-protein transferases", "experiment": "the disclosed assays (not specified which)"}
{"molecule": "Cc1cccc(Oc2cc(Cn3c(CN4CCN(C(=O)OC(C)(C)C)CC4)cnc3C)ccc2C#N)n1", "note": "[Example 1 Step G, 1-(tert-butoxycarbonyl)-4-[1-(3-((6-methyl-2-pyridyl)oxy)-4-cyanobenzyl)-2-methyl-5-imidazolylmethyl]piperazine]", "values": [{"measurement": "activity in the disclosed assays", "result": "active"}]}
